Data from patent US6548516B1, “1-(3-heteroarylpropyl- or -prop-2-enyl)-4-benzylpiperidines used as NMDA receptor antagonists” (Merck Patent GmbH, priority 1998, dated 2003).

Structure (SMILES)	melting point
O=c1[nH]c2ccc(CCCN3CCC(Cc4ccc(F)cc4)CC3)cc2o1 [Example 1, 6-{3-[4-(4-fluorobenzyl)piperid-1-yl]propyl}-3H-benzoxazol-2-one]	105 to 107 °C
O=c1[nH]c2ccc(C=CCN3CCC(Cc4ccc(F)cc4)CC3)cc2o1 [Example 2, 6-{3-[4-(4-fluorobenzyl)piperid-1-yl]propenyl}-3H-benzoxazol-2-one]	202 to 203.5 °C
